The target of the assay is T1, PD-1/PD-L1 (Homo sapiens, UniProt Q9NZQ7).
T1 construct: TVMV protease site linker (C); made in house; host or cells: HEK293T cells
Nature of the assay: PD-1/PD-L1 Homogenous Time-Resolved Fluorescence (HTRF) binding assay. As to conditions: PD-L1-His 10 nM, PD-1-Ig 20 nM. A digest of the protocol: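 Time-resolved FRET read-out using Eu-cryptate anti-Ig (1 nM final) and APC anti-His (20 nM final). Tagged extracellular domains were used in BSA/Tween-20-supplemented dPBS, with compound pre-incubated 15 min with PD-L1-His (10 nM) before PD-1-Ig (20 nM) was added for 15 min. Other human pairs: PD-L2-His 5 nM with PD-1-Ig 20 nM; PD-L1-Ig 10 nM with CD80-His 100 nM.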
(In general: Time-resolved FRET reads energy transfer from a long-lived donor to a nearby acceptor.)

SMILES strings stand for the structures.

For orientation: IC50 means the concentration at which inhibition is half-maximal.

T1 sequence (Q9NZQ7 18-239): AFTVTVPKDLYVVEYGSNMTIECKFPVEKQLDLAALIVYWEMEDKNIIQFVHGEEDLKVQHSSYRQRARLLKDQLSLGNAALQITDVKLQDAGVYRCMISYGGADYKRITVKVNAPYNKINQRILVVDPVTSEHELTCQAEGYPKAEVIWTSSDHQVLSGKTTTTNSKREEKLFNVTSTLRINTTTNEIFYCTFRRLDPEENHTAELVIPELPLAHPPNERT

As for `Cc1c(COc2cc(OCc3cncc(C#N)c3)c(CNCc3cnco3)cc2Cl)cccc1-c1cccc(OCCCN2CC[C@@H](O)C2)c1C` [Example 2547, (R)-5-((4-chloro-5-((3′-(3-(3-hydroxypyrrolidin-1-yl)propoxy)-2,2′-dimethyl-[1,1′-biphenyl]-3-yl)methoxy)-2-(((oxazol-5-ylmethyl)amino)methyl)phenoxy)methyl)nicotinonitrile], the IC50 stood at 2.5 nM.
The value for `CCc1csc(CNCc2cc(Cl)c(OCc3cccc(-c4cccc(OCCCN5CC[C@@H](O)C5)c4C)c3C)cc2OCc2cncc(C#N)c2)n1` [Example 2548, (R)-5-((4-chloro-2-((((4-ethylthiazol-2-yl)methyl)amino)methyl)-5-((3′-(3-(3-hydroxypyrrolidin-1-yl)propoxy)-2,2′-dimethyl-[1,1′-biphenyl]-3-yl)methoxy)phenoxy)methyl)nicotinonitrile] was less than 0.038 nM.
The value for `Cc1c(COc2cc(OCc3cncc(C#N)c3)c(CNCc3nc4ccccc4s3)cc2Cl)cccc1-c1cccc(OCCCN2CC[C@@H](O)C2)c1C` [Example 2549, (R)-5-((2-(((benzo[d]thiazol-2-ylmethyl)amino)methyl)-4-chloro-5-((3′-(3-(3-hydroxypyrrolidin-1-yl)propoxy)-2,2′-dimethyl-[1,1′-biphenyl]-3-yl)methoxy)phenoxy)methyl)nicotinonitrile] was 33.2 nM.
Compound `Cc1c(COc2cc(OCc3cncc(C#N)c3)c(CN(C)Cc3ncco3)cc2Cl)cccc1-c1cccc(OCCCN2CC[C@@H](O)C2)c1C` [Example 2550, (R)-5-((4-chloro-5-((3′-(3-(3-hydroxypyrrolidin-1-yl)propoxy)-2,2′-dimethyl-[1,1′-biphenyl]-3-yl)methoxy)-2-((methyl(oxazol-2-ylmethyl)amino)methyl)phenoxy)methyl)nicotinonitrile] returned an IC50 of 0.5 nM.
For the compound `Cc1c(COc2cc(OCc3cncc(C#N)c3)c(CN(C)Cc3cnco3)cc2Cl)cccc1-c1cccc(OCCCN2CC[C@@H](O)C2)c1C` [Example 2551, (R)-5-((4-chloro-5-((3′-(3-(3-hydroxypyrrolidin-1-yl)propoxy)-2,2′-dimethyl-[1,1′-biphenyl]-3-yl)methoxy)-2-((methyl(oxazol-5-ylmethyl)amino)methyl)phenoxy)methyl)nicotinonitrile], the IC50 was 2.7 nM.
With `Cc1c(COc2cc(OCc3cncc(C#N)c3)c(CN(C)Cc3cc(C4CC4)on3)cc2Cl)cccc1-c1cccc(OCCCN2CC[C@@H](O)C2)c1C` [Example 2552, (R)-5-((4-chloro-2-((((5-cyclopropylisoxazol-3-yl)methyl)(methyl)amino)methyl)-5-((3′-(3-(3-hydroxypyrrolidin-1-yl)propoxy)-2,2′-dimethyl-[1,1′-biphenyl]-3-yl)methoxy)phenoxy)methyl)nicotinonitrile] the figure was 7.3 nM; with `CCc1csc(CN(C)Cc2cc(Cl)c(OCc3cccc(-c4cccc(OCCCN5CC[C@@H](O)C5)c4C)c3C)cc2OCc2cncc(C#N)c2)n1` [Example 2553, (R)-5-((4-chloro-2-((((4-ethylthiazol-2-yl)methyl)(methyl)amino)methyl)-5-((3′-(3-(3-hydroxypyrrolidin-1-yl)propoxy)-2,2′-dimethyl-[1,1′-biphenyl]-3-yl)methoxy)phenoxy)methyl)nicotinonitrile], 30.1 nM; with `Cc1c(COc2cc(OCc3cncc(C#N)c3)c(CN(C)Cc3nc4ccccc4s3)cc2Cl)cccc1-c1cccc(OCCCN2CC[C@@H](O)C2)c1C` [Example 2554, (R)-5-((2-(((benzo[d]thiazol-2-ylmethyl)(methyl)amino)methyl)-4-chloro-5-((3′-(3-(3-hydroxypyrrolidin-1-yl)propoxy)-2,2′-dimethyl-[1,1′-biphenyl]-3-yl)methoxy)phenoxy)methyl)nicotinonitrile], 258 nM.
The value for `Cc1c(COc2cc(OCc3cncc(C#N)c3)c(CNCc3nn(C)c4ccccc34)cc2Cl)cccc1-c1cccc(OCCCN2CC[C@@H](O)C2)c1C` [Example 2555, (R)-5-((4-chloro-5-((3′-(3-(3-hydroxypyrrolidin-1-yl)propoxy)-2,2′-dimethyl-[1,1′-biphenyl]-3-yl)methoxy)-2-((((1-methyl-1H-indazol-3-yl)methyl)amino)methyl)phenoxy)methyl)nicotinonitrile] was 0.4 nM.
With `Cc1c(COc2cc(OCc3cncc(C#N)c3)c(CNCc3ccnn3C)cc2Cl)cccc1-c1cccc(OCCCN2CC[C@@H](O)C2)c1C` [Example 2556, (R)-5-((4-chloro-5-((3′-(3-(3-hydroxypyrrolidin-1-yl)propoxy)-2,2′-dimethyl-[1,1′-biphenyl]-3-yl)methoxy)-2-((((1-methyl-1H-pyrazol-5-yl)methyl)amino)methyl)phenoxy)methyl)nicotinonitrile] the figure was 0.8 nM.
Regarding `Cc1c(COc2cc(OCc3cncc(C#N)c3)c(CNCc3nc4ccccc4n3Cc3ccccc3)cc2Cl)cccc1-c1cccc(OCCCN2CC[C@@H](O)C2)c1C` [Example 2557, (R)-5-((2-((((1-benzyl-1H-benzo[d]imidazol-2-yl)methyl)amino)methyl)-4-chloro-5-((3′-(3-(3-hydroxypyrrolidin-1-yl)propoxy)-2,2′-dimethyl-[1,1′-biphenyl]-3-yl)methoxy)phenoxy)methyl)nicotinonitrile], the IC50 turned out to be 73.3 nM.
`COCc1noc(CNCc2cc(Cl)c(OCc3cccc(-c4cccc(OCCCN5CC[C@@H](O)C5)c4C)c3C)cc2OCc2cncc(C#N)c2)n1` [Example 2558, (R)-5-((4-chloro-5-((3′-(3-(3-hydroxypyrrolidin-1-yl)propoxy)-2,2′-dimethyl-[1,1′-biphenyl]-3-yl)methoxy)-2-((((3-(methoxymethyl)-1,2,4-oxadiazol-5-yl)methyl)amino)methyl)phenoxy)methyl)nicotinonitrile] had an IC50 of 6.4 nM.
With `Cc1c(COc2cc(OCc3cncc(C#N)c3)c(CN(C)Cc3ccnn3C)cc2Cl)cccc1-c1cccc(OCCCN2CC[C@@H](O)C2)c1C` [Example 2559, (R)-5-((4-chloro-5-((3′-(3-(3-hydroxypyrrolidin-1-yl)propoxy)-2,2′-dimethyl-[1,1′-biphenyl]-3-yl)methoxy)-2-((methyl((1-methyl-1H-pyrazol-5-yl)methyl)amino)methyl)phenoxy)methyl)nicotinonitrile] the figure was 4.1 nM.
With `COCc1noc(CN(C)Cc2cc(Cl)c(OCc3cccc(-c4cccc(OCCCN5CC[C@@H](O)C5)c4C)c3C)cc2OCc2cncc(C#N)c2)n1` [Example 2560, (R)-5-((4-chloro-5-((3′-(3-(3-hydroxypyrrolidin-1-yl)propoxy)-2,2′-dimethyl-[1,1′-biphenyl]-3-yl)methoxy)-2-((((3-(methoxymethyl)-1,2,4-oxadiazol-5-yl)methyl)(methyl)amino)methyl)phenoxy)methyl)nicotinonitrile] the figure was 4.5 nM; with `Cc1c(COc2cc(OCc3cncc(C#N)c3)c(CN(C)Cc3nc4ccccc4n3Cc3ccccc3)cc2Cl)cccc1-c1cccc(OCCCN2CC[C@@H](O)C2)c1C` [Example 2561, (R)-5-((2-((((1-benzyl-1H-benzo[d]imidazol-2-yl)methyl)(methyl)amino)methyl)-4-chloro-5-((3′-(3-(3-hydroxypyrrolidin-1-yl)propoxy)-2,2′-dimethyl-[1,1′-biphenyl]-3-yl)methoxy)phenoxy)methyl)nicotinonitrile], 746 nM.
The value for `Cc1c(COc2cc(OCc3cncc(C#N)c3)c(CN(C)Cc3nn(C)c4ccccc34)cc2Cl)cccc1-c1cccc(OCCCN2CC[C@@H](O)C2)c1C` [Example 2562, (R)-5-((4-chloro-5-((3′-(3-(3-hydroxypyrrolidin-1-yl)propoxy)-2,2′-dimethyl-[1,1′-biphenyl]-3-yl)methoxy)-2-((methyl((1-methyl-1H-indazol-3-yl)methyl)amino)methyl)phenoxy)methyl)nicotinonitrile] was 9.5 nM; that for `Cc1c(COc2cc(OCc3cncc(C#N)c3)c(CNC3CCc4[nH]ncc4C3)cc2Cl)cccc1-c1cccc(OCCCN2CC[C@@H](O)C2)c1C` (stereo partly drawn) [Example 2563, 5-((4-chloro-5-((3′-(3-((R)-3-hydroxypyrrolidin-1-yl)propoxy)-2,2′-dimethyl-[1,1′-biphenyl]-3-yl)methoxy)-2-(((4,5,6,7-tetrahydro-1H-indazol-5-yl)amino)methyl)phenoxy)methyl)nicotinonitrile] was 0.5 nM; that for `Cc1c(COc2cc(OCc3cncc(C#N)c3)c(CN(C)C3CCc4[nH]ncc4C3)cc2Cl)cccc1-c1cccc(OCCCN2CC[C@@H](O)C2)c1C` (stereo partly drawn) [Example 2564, 5-((4-chloro-5-((3′-(3-((R)-3-hydroxypyrrolidin-1-yl)propoxy)-2,2′-dimethyl-[1,1′-biphenyl]-3-yl)methoxy)-2-((methyl(4,5,6,7-tetrahydro-1H-indazol-5-yl)amino)methyl)phenoxy)methyl)nicotinonitrile] was 2.7 nM.
In turn, `Cc1c(COc2cc(OCc3cncc(C#N)c3)c(CNCc3ncc4ccccn34)cc2Cl)cccc1-c1cccc(OCCCN2CC[C@@H](O)C2)c1C` [Example 2565, (R)-5-((4-chloro-5-((3′-(3-(3-hydroxypyrrolidin-1-yl)propoxy)-2,2′-dimethyl-[1,1′-biphenyl]-3-yl)methoxy)-2-(((imidazo[1,5-a]pyridin-3-ylmethyl)amino)methyl)phenoxy)methyl)nicotinonitrile] displayed an IC50 of 4.7 nM.
The value for `Cc1c(COc2cc(OCc3cncc(C#N)c3)c(CNCc3ncc(-c4ccccc4)o3)cc2Cl)cccc1-c1cccc(OCCCN2CC[C@@H](O)C2)c1C` [Example 2566, (R)-5-((4-chloro-5-((3′-(3-(3-hydroxypyrrolidin-1-yl)propoxy)-2,2′-dimethyl-[1,1′-biphenyl]-3-yl)methoxy)-2-((((5-phenyloxazol-2-yl)methyl)amino)methyl)phenoxy)methyl)nicotinonitrile] was 48.6 nM.

The values are drawn from patent US20240124417A1, “COMPOUNDS USEFUL AS IMMUNOMODULATORS” (Bristol-Myers Squibb Company, priority 2019, published 2024).
